Measurements: patent publication US5606061A, “Thioformamide derivatives” (Eisai Co., Ltd., priority 1991, dated 1997)
Read-outs that look alike come from different tables or passages of the source.

Assays:
[1] = tested on: right ventricular papillary muscle of guinea pig; experiment: Activity on the action potential duration of the right ventricular papillary muscle of guinea pig (potassium channel activating effect); assay type: cell-based, guinea pig (Hartley); conditions: Cavia porcellus, 0.5 h, 1 Hz, 36 ±0.5° C., 30 minutes each concentration, read-out: Concn. at which APD90 is shortened to 50% of the initial one IC50 (converted)
Excerpt: (2) Activity on the action potential duration of the right ventricular papillary muscle of guinea pig
The compounds of the present invention were examined for the potassium channel activating effect by the use of the right ventricular papillary muscle of a guinea pig.
An action potential duration at 90% repolarization (hereinafter abbreviated to "APD90 ") reflects an outward potassium current. A compound having the potassium channel activating effect can activate the outward potassium channel to shorten the APD90 (see Proc. Natl. Acad. Sci., USA, 85, 8860 to 8864 (1988)).
A Hartley male guinea pig having a weight of 300 to 500 g was used. This guinea pig was killed by bleeding and the papillary muscle was extirpated from the right ventricle of the guinea pig and fixed in the Organbath. The surface of the papillary muscle was washed with Tyrode's solution at 36 ±0.5° C. through which an oxygen/carbon dioxide mixture was passed. The resulting specimen was stimulated by applying a rectangular wave pulse of 1 Hz to record the action potential by the glass microelectrode method.
After the action potential had been stabilized, the specimen was washed with Tyrode's solutions containing a test compound each for 30 minutes to determine the dose-response curve.

[2] = tested on: rat aorta; experiment: Vasohypotonic activity on rat aorta specimen (inhibition of KCl-induced tension); assay type: cell-based, rat (SD); conditions: rat aorta spiral specimen, 20 mM KCl, 30° C., KCl tension = 100%
Procedure: (1) Vasohypotonic activity on rat aorta specimen
The compounds of the present invention were examined for vasohypotonic activity by the use of the aorta extirpated from a rat.
A pectoral aorta was speedily extirpated from an SD male rat having a weight of 250 to 400 g and a spiral specimen was prepared from the aorta. This specimen was vertically suspended in the Organbath which was filled with the Krebs-Henseleit solution at 30° C. and through which a gas mixture comprising 95% of oxygen and 5% of carbon dioxide was passed. The change in the tension of the specimen was isotonically determined under a load of 1 g.
After the tension of the specimen has been stabilized, 20 mM of KCl was added to the bath. After the generated tension had been stabilized, a test compound was cumulatively added to the Organbath to determine the relaxation.
The extent of the relaxation, i.e., the inhibitory activity against the generation of tension was determined by taking the tension generated by the addition of KCl as 100% to calculate the IC50 value.

[3] = tested on: anesthetized thoracotomized dog; experiment: Hypotensive activity and coronary bloodflow increasing activity on anesthetized thoracotomized dog; assay type: in vivo, dog (crossbred); conditions: Canis lupus familiaris, intravenous, 3 μg/kg
Excerpt: (3) Hypotensive activity and coronary bloodflow increasing activity on anesthetized thoracotomized dog
The compounds of the present invention were examined for hypotensive activity and coronary bloodflow increasing activity by the use of an anesthetized thoracotomized dog.
A crossbred adult dog was used. This dog was thoracotomized under inhalation anesthesia with an enflurane/laughing gas. The probe of an electromagnetic flowmeter was set on the ramus circumflexes of the left coronary artery to determine the coronary bloodflow. The arterial pressure was determined by making the tip of a catheter-tipped pressure transducer indwell in the arcus aortae.
Each test compound was intravenously administered in a dose of 3 μg/kg through a catheter inserted into the femoral vein.
The hypotensive activity and coronary bloodflow increasing activity of each test compound are given in Table 1 as the changes of the blood pressure and coronary bloodflow based on those before the administration of the compound.

[4] = tested on: spontaneously hypertensive rats (SHR); experiment: Hypotensive activity on spontaneously hypertensive rat in waking state; assay type: in vivo; conditions: oral, 2 hours after administration, before administration = 100, control 93.3 ± 4.0, read-out: Blood pressure
Procedure: (4) Hypotensive activity on spontaneously hypertensive rat in waking state
The compounds of the present invention were examined for hypotensive activity by orally administrating them to spontaneously hypertensive rats (SHR).
The systolic pressure of a spontaneously hypertensive male rat (weight: 260 to 360 g) which had been fasted for 12 hours was bloodlessly determined by the tail cuff method. Each drug was suspended in a 0.5% aqueous solution of methylcellulose and orally administered in a dose of 1 mg/kg. only the solvent was administered to control rats.
The blood pressures of the rats after 2 hours from the administration are given in the Table 1 with the blood pressures before the administration being taking as 100.

[5] = change of blood pressure vs before administration, read-out: Change (%) hypotensive activity
[6] = change of coronary bloodflow vs before administration, read-out: Change (%) coronary blood-flow increasing activity

Row | IC50 [1] [nM] | IC50 [2] [nM] | Compound | change in vivo at 0.003 mg/kg [3, 5] [%] | change in vivo at 0.003 mg/kg [3, 6] [%] | response vs control in vivo at 1 mg/kg [4] [%]
1 | 2630 | 18.6 | CNC(=S)C1(c2ccc3nccn3c2)CCCCC1=O (single isomer, unassigned; (-)) [Compound 1, (-)-1-(imidazo[1,2-a]pyridin-6-yl)-N-methyl-2-oxocyclohexanecarbothioamide] | -22.1 | 78.6 | 51.6 ± 5.1
2 | 759 | 6.17 | CNC(=S)C1(c2ccc3nc(C)cn3c2)CCCCC1=O (single isomer, unassigned; (-)) [Compound 3, (-)-N-methyl-1-(2-methylimidazo-[1,2-a]pyridin-6-yl)-2-oxocyclohexanecarbothioamide] | -27 | 198 | 45.9 ± 3.9
3 |  | 0.575 | CNC(=S)C1(c2ccc3nccn3c2)CCCCC1OC(=O)c1ccccc1 (single isomer, unassigned; (-)) [Compound 4, (-)-2-benzoyloxy-1-(imidazo[1,2-a]pyridin-6-yl)-N-methylcyclohexanecarbothioamide] | -26.6 | 312 | 
4 |  | 20 | CNC(=S)C1(c2ccc3nc(C(F)(F)F)cn3c2)CCCCC1=O (single isomer, unassigned; (-)) [Compound 12, (-)-1-(2-trifluoromethylimidazo-[1,2-a]pyridin-6-yl)-N-methyl-2-oxocyclohexanecarbothioamide] | -16.5 | 86.5 | 
5 |  | 20 | CNC(=S)C1(c2ccc3nc(C)cn3c2)CCCC[S+]1[O-] (single isomer, unassigned; (-)) [Compound 13, (-)-2-(2-methylimidazo-[1,2-a]pyridin-6-yl)-N-methyltetrahydrothiopyran-2-carbonthioamide 1-oxide] | -30 | 228 | 
6 | 8.91 | 0.355 | CNC(=S)C1(c2ccc3nccn3c2)CCCCC1OCc1ccccc1 (stereo not drawn) [Compound 5, 2-benzyloxy-1-(imidazo[1,2-a]pyridin-6-yl)-N-methylcyclohexanecarbothioamide] | -8.1 | 196 | 
7 | 204 | 1.91 | CNC(=S)C1(c2ccc3nccn3c2)CCCCC1=NOCc1ccccc1 (stereo not drawn) [Compound 6, anti-2-benzyloxyimino-1-(imidazo[1,2-a]pyridin-6-yl)-N-methylcyclohexanecarbothioamide] | -25.2 | 67.5 | 59.3 ± 6.9
8 |  | 1.78 | CNC(=S)C1(c2ccc3nccn3c2)CCCCC1NCc1ccccc1 (stereo not drawn) [Compound 7] | -7.3 | 22.8 | 87.9 ± 0.1
9 |  | 55 | CNC(=S)C1(c2ccc3nccn3c2)CCCC[S+]1[O-] (stereo not drawn) [Compound 8, 2-(imidazo[1,2-a]pyridin-6-yl)-N-methyltetrahydrothiopyran-2-carbothioamide1-oxide] | -10.5 | 70.7 | 62 ± 6.5
10 | 479 | 11 | CNC(=S)C1(n2cnc([N+](=O)[O-])c2)CCCCC1OC(=O)c1ccccc1 (stereo not drawn) [Compound 9, 2-benzoyloxy-N-methyl-1-(4-nitroimidazol-1yl)cyclohexanecarbothioamide] | -14.9 | 131 | 62.4 ± 3.7
11 | 51.3 | 0.49 | CNC(=S)C1(n2cnc([N+](=O)[O-])c2)CCCCC1OCc1ccccc1 (stereo not drawn) [Compound 10, 2-benzyloxy-N-methyl-1-(4-nitroimidazol-1yl)cyclohexanecarbothioamide] | -16.3 | 169 | 58.8 ± 5.7
12 | 148 | 0.55 | CNC(=S)C1(n2cnc([N+](=O)[O-])c2)CCCCC1=NOCc1ccccc1 (stereo not drawn) [Compound 11, anti-2-benzyloxyimino-N-methyl-1-(4-nitroimidazol-1-yl)cyclohexanecarbothioamide] | -28.5 | 152 | 72.1 ± 4.5
